Ends that are not written are not given here.

Consider 1 substance from article PMC12736563, “NMR Unveils Activity Mechanism of Linear Spider Venom Peptide Fragments Selected by Neural Networks Against Staphylococci Including MRSA” (Pharmaceutics, 2025).

A short description of data set [1]: Solubility in water (statement). The format is physicochemical. Particulars: aqueous solution; NMR samples 0.2–1.0 mM.
The next data set relates to E. coli, ΔtolC. In words: microbe, parasite or virus in culture. The data set is classed as cell-based. Particulars: E. coli, ΔtolC.
Another data set relates to E. coli, ATCC 25922. Briefly: microbe, parasite or virus in culture. The format is cell-based.
Data set [2] relates to S. aureus ATCC 29213 (MSSA). In words: microbe, parasite or virus in culture. Particulars: two-fold serial dilution in MHB, ~1 × 10^5 cells/mL, starting 200 μg/mL, Figure 2. The format is cell-based, Staphylococcus aureus. The procedure: (§1) For antimicrobial activity determination, Gram-positive strains (Staphylococcus aureus 209P, ATCC 29213, ATCC 25923, ATCC 43300 [MRSA], S. epidermidis ATCC 14990) were used. Experiments were conducted at bacterial concentrations of (0.5–1) × 10^5 cells/mL. […] Briefly, overnight cultures in Mueller-Hinton broth (MHB, HiMedia, Mumbai, Maharashtra, India) were diluted 1:100 into fresh MHB and incubated at 37 °C for 3 h. Cultures were then adjusted to ~1 × 10^5 cells/mL (by OD600) and used as an inoculate. Peptide stocks (10 mg/mL in water) were prepared in MHB to achieve a starting concentration of 200 μg/mL and subsequently diluted twofold.

Data set [3] deals with S. aureus ATCC 43300 (MRSA). Briefly: microbe, parasite or virus in culture. To be noted: S. aureus ATCC 43300 (MRSA); two-fold serial dilution in MHB, ~1 × 10^5 cells/mL, starting 200 μg/mL; Figure 2. The format is cell-based, Staphylococcus aureus. As for the experimental part: as §1
The test system of a further data set is S. aureus ATCC 25923. In words: microbe, parasite or virus in culture. The format is cell-based, Staphylococcus aureus. Particulars: two-fold serial dilution in MHB, ~1 × 10^5 cells/mL, starting 200 μg/mL, Figure 2. As for the experimental part:
as §1

The test system of data set [4] is S. epidermidis ATCC 14990. In words: microbe, parasite or virus in culture. The data set is classed as cell-based, Staphylococcus epidermidis. To be noted: two-fold serial dilution in MHB, ~1 × 10^5 cells/mL, starting 200 μg/mL, values in Figure 2. The procedure:
as §1

The nature of data set [5]: pKa of His12 side chain by NMR pH titration. The format is physicochemical. The procedure: NMR experiments in aqueous and micellar solutions were performed using samples containing 0.2–1.0 mM of peptide IX in 5% D2O at pH of 4.5. To model a membrane environment, 1-palmitoyl-2-hydroxy-sn-glycero-3-phospho-(1′-rac-glycerol) (LPPG, 16:0 Lyso PG, Avanti, Alabaster, AL, USA) was added stepwise to the aqueous peptide IX sample using a concentrated stock solution until a detergent-to-peptide (D:P) molar ratio of 140:1 was achieved. The NMR spectra were acquired on a Bruker Avance III 800 MHz spectrometer (Karlsruhe, Germany) equipped with a room-temperature triple-resonance (^1H, ^13C, ^15N) probe. Almost complete ^1H, ^13C, and ^15N resonance assignments for peptide IX in aqueous solution and LPPG micelles were obtained via a combination of 2D ^1H-TOCSY (τm = 60 ms), ^1H-NOESY (τm = 150 ms) and natural abundance ^13C-HSQC and ^15N-HSQC spectra measured at 5 °C and 45 °C, respectively, using the CARA 1.9.1.7 software (http://cara.nmr.ch/doku.php/Home (accessed on 12 December 2024)). […] The temperature gradients of amide protons (∆δ^1H^N/∆T) were measured from a series of 2D TOCSY spectra in water and 2D NOESY spectra in LPPG acquired in the temperature range of 15–45 °C. The pH-dependences of the ^1H^N and ^1H^δ2 His12 chemical shifts were measured in the pH range 2–9 from a series of 2D TOCSY spectra in water at 30 °C and 2D NOESY spectra in LPPG micelles at 45 °C. […]

For another data set, the system named is human red blood cells. Briefly: Hemolytic activity. The data set is classed as cell-based. Particulars: fresh human capillary blood, two independent experiments. As for the experimental part: Hemolytic activity was assessed using fresh capillary blood from a human volunteer, as described in [28]. Each peptide’s hemolytic activity was tested in two independent experiments.

The next data set relates to E. coli, lptD. Briefly: microbe, parasite or virus in culture. The format is cell-based. Particulars: E. coli, lptD.

For the substance IWLSLMKFAGKHL-NH2 [IX], the “solubility in water (in words)” value in data set [1] was “water-soluble”. Besides, the MIC in the data set with E. coli, ΔtolC is 200 mg/L; with E. coli, ATCC 25922, above 200 mg/L; in data set [2], 25.00 mg/L; in data set [3] it was 25.00 mg/L; in the data set with S. aureus ATCC 25923, 25.00 mg/L; in data set [4], 12.50 mg/L. Also, in the data set on E. coli, lptD, the MIC was 50 mg/L. Besides, the “pKa of His12 side chain” value is reported as 7.86 ± 0.24 in data set [5] (LPPG micelles, D:P 140:1, 2D NOESY at 45 °C) and 6.02 ± 0.05 in [5] (aqueous solution, 5% D2O, 2D TOCSY at 30 °C, pH range of 3–8). In addition, the “Hemolysis (%)” value with human red blood cells (25 μM peptide) is recorded as 0%; in the data set on human red blood cells (50 μM peptide), 14%; with human red blood cells (100 μM peptide), 100%.
